≈ marks a conversion by molar mass, not a printed value. Square brackets hold non-standard residues; d marks the D form. Peptide text beside a SMILES is read from it.
Key:
[1] = system: Salmonella; assay type: cell-based, S. typhimurium; conditions: pH 7.2
Summary of the method: (§1)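 Bacterial suspensions (~5×10^6 CFU/ml) and serially diluted peptides, both in low-nutrient phosphate buffer (pH 7.2, 0.03% LB), are combined and held 3 h at 37 °C. Full LB is added for overnight growth. The MIC marks no growth, and IC50 marks 50% growth relative to medium.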

[2] = system: S. aureus; test: Mouse wound model of luminescent S. aureus infection; assay type: in vivo, BALB/c mice
Excerpt: In this protocol, BALB/c mice of 4-6 weeks of age were exposed to wounds on their backs, then inoculated with an infection of S. aureus, which had 10^5 cfu per pocket (2×10^7 […] DMEM) The S. aureus had been transfected with a plasmid containing luciferase as well as the substrate for luciferase. Using a special camera, light is detected from living bacteria in the wound. The light intensity is converted to a color scale. Controls received no peptide, and the treatment group received peptide at the indicated dose. Animals were imaged at 1, 3, 6 and 24 hrs.

[3] = system: E. coli DH5a; assay type: cell-based; conditions: DH5a
Summary of the method: as §1

[4] = system: bacterial strains; test: organism not typed; assay type: cell-based
Procedure: Three preferred peptides G11.46, G12.21 and G14.15, discussed above, were further tested for antimicrobial efficacy under various conditions using the 10% FCS/DMEM assay as described under CFU assay. The incubation times with the bacteria and peptide was three hours, at which time the bacteria were diluted and plated on agar. […] The MIC for each compound is highlighted.
Table 9 below repeats some data presented above in Tables 6, 7, and 8.

Compound: CSCC[C@H](NC(=O)[C@H](Cc1ccccc1)NC(=O)[C@@H](CCCNC(=N)N)NC(=O)[C@@H](CCCNC(=N)N)NC(=O)[C@H](CO)NC(=O)[C@@H](NC(=O)[C@@H](CCCNC(=N)N)NC(=O)[C@@H](CCCNC(=N)N)NC(=O)[C@@H](CCCNC(=N)N)NC(=O)[C@@H](CCCNC(=N)N)NC(=O)[C@@H](CCCNC(=N)N)NC(=O)[C@@H](CCCNC(=N)N)NC(=O)[C@H](N)CCCNC(=N)N)C(C)C)C(=O)N[C@H](CCCNC(=N)N)C(=O)N[C@H](CCCNC(=N)N)C(=O)O [Peptide G11.46, rrrrrrrVSrrFMrr] (H-[dR][dR][dR][dR][dR][dR][dR]VS[dR][dR]FM[dR][dR]-OH; N-terminus and C-terminus assumed)
- IC50 [1]: 210 nM
- Salmonella MIC [1]: 0.7 µM
- light units from S. aureus in wound ([2]; 25 μg and 100 μg, data not shown): significant reduction in light units
- light units from S. aureus in wound ([2]; 100 μg, after 6 hrs.): light units approached levels obtained with the blank
- recovery of bacteria ([2]; by 24 hours): some recovery of bacteria by 24 hours
- MIC [3]: 0.8 µM (≈ 1.76 µg/mL)
- E. coli DH5a MIC ([3]; pH 7.2): 0.8 µM
- IC50 ([3]; pH 7.2): 100 nM
- MIC ([4]; ATCC#25922, 3 h): 0.32 to 0.63 µM
- MIC ([4]; ATCC#29213, 3 h): 0.04 to 0.08 µM
- MIC ([4]; ATCC#53522, 3 h): 0.02 µM (≈ 0.044 µg/mL)
- MIC ([4]; SL1344, 3 h): 0.63 to 1.25 µM
